The text below walks through data of ChEMBL document CHEMBL1153983, “Anti-HBV agents. Part 2: synthesis and in vitro anti-hepatitis B virus activities of alisol A derivatives” (Bioorg Med Chem Lett, 2009).

The nature of data set [1]: Cytotoxicity against human HepG2(2.2.15) cells. In kind it is cell-based.
Data set [2] concerns Hepatitis B virus. The data set is described as follows: Antiviral activity against HBV assessed as inhibition of viral surface antigen secretion. Format: functional, organism-based.
Data set [3] relates to Hepatitis B virus. The data set is described as follows: Antiviral activity against HBV assessed as inhibition of viral early antigen secretion. Format: functional, organism-based.

pIC50: −log10 of the molar value.

Turning to `C/C=C/C(=O)O[C@@H](C[C@@H](C)C1=C2C[C@H](OC(=O)/C=C/C)[C@H]3[C@@]4(C)CCC(=O)C(C)(C)[C@@H]4CC[C@]3(C)[C@@]2(C)CC1)[C@@H](OC(=O)/C=C/C)C(C)(C)O`, the CC50 in data set [1] is over 850 µM. Further, the pIC50 in data set [2] and in data set [3] was under 3.07 in each case.

`C/C=C/C=C/C(=O)O[C@@H](C[C@@H](C)C1=C2C[C@H](OC(=O)/C=C/C=C/C)[C@H]3[C@@]4(C)CCC(=O)C(C)(C)[C@@H]4CC[C@]3(C)[C@@]2(C)CC1)[C@@H](OC(=O)/C=C/C=C/C)C(C)(C)O` returned a CC50 in data set [1] of over 900 µM. Further, the pIC50 in data set [2] and in data set [3] was under 3.05 throughout.

Molecule `CC(C)CC(=O)O[C@@H](C[C@@H](C)C1=C2C[C@H](OC(=O)CC(C)C)[C@H]3[C@@]4(C)CCC(=O)C(C)(C)[C@@H]4CC[C@]3(C)[C@@]2(C)CC1)[C@@H](OC(=O)CC(C)C)C(C)(C)O` registered a CC50 in data set [1] of over 1200 µM. In addition, the pIC50 in data set [2] and in data set [3] was under 2.92 each time.

On to `C[C@H](C[C@H](OC(=O)c1ccc(Cl)cc1Cl)[C@@H](OC(=O)c1ccc(Cl)cc1Cl)C(C)(C)O)C1=C2C[C@H](OC(=O)c3ccc(Cl)cc3Cl)[C@H]3[C@@]4(C)CCC(=O)C(C)(C)[C@@H]4CC[C@]3(C)[C@@]2(C)CC1`, for which, in data set [1], the CC50 was over 1200 µM. Moreover, the pIC50 in data set [2] and in data set [3] was under 2.92 throughout.

`C=C(C)[C@H](OC(=O)COC(C)=O)[C@H](C[C@@H](C)C1=C2C[C@H](OC(=O)COC(C)=O)[C@H]3[C@@]4(C)CCC(=O)C(C)(C)[C@@H]4CC[C@]3(C)[C@@]2(C)CC1)OC(=O)COC(C)=O` showed a CC50 in data set [1] of under 30 µM. In addition, the pIC50 in data set [2] and in data set [3] was over 4.49 in each case.

The molecule `CCCCCCCC(=O)O[C@@H](C[C@@H](C)C1=C2C[C@H](OC(=O)CCCCCCC)[C@H]3[C@@]4(C)CCC(=O)C(C)(C)[C@@H]4CC[C@]3(C)[C@@]2(C)CC1)[C@@H](OC(=O)CCCCCCC)C(C)(C)O` displayed a CC50 in data set [1] of over 600 µM. Further, the pIC50 in data set [2] and in data set [3] was under 3.22 in each case.

With `C[C@H](C[C@H](OC(=O)c1ccc(Cl)cc1)[C@@H](OC(=O)c1ccc(Cl)cc1)C(C)(C)O)C1=C2C[C@H](OC(=O)c3ccc(Cl)cc3)[C@H]3[C@@]4(C)CCC(=O)C(C)(C)[C@@H]4CC[C@]3(C)[C@@]2(C)CC1`, the CC50 in data set [1] is over 900 µM. The pIC50 in data set [2] and in data set [3] was under 3.05 each time.

The molecule `C[C@H](C[C@H](OC(=O)Cc1ccc([N+](=O)[O-])cc1)[C@@H](OC(=O)Cc1ccc([N+](=O)[O-])cc1)C(C)(C)O)C1=C2C[C@H](OC(=O)Cc3ccc([N+](=O)[O-])cc3)[C@H]3[C@@]4(C)CCC(=O)C(C)(C)[C@@H]4CC[C@]3(C)[C@@]2(C)CC1` registered a CC50 in data set [1] of over 1000 µM. Further, the pIC50 in data set [2] and in data set [3] was under 3.00 in each case.

In data set [1], `C[C@H](C[C@H](OC(=O)COc1ccccc1)[C@@H](OC(=O)COc1ccccc1)C(C)(C)O)C1=C2C[C@H](OC(=O)COc3ccccc3)[C@H]3[C@@]4(C)CCC(=O)C(C)(C)[C@@H]4CC[C@]3(C)[C@@]2(C)CC1` returned a CC50 of over 1300 µM. Further, the pIC50 in data set [2] and in data set [3] was under 2.89 throughout.

`CC(C)CCC(=O)O[C@@H](C[C@@H](C)C1=C2C[C@H](OC(=O)CCC(C)C)[C@H]3[C@@]4(C)CCC(=O)C(C)(C)[C@@H]4CC[C@]3(C)[C@@]2(C)CC1)[C@@H](OC(=O)CCC(C)C)C(C)(C)O` registered a CC50 in data set [1] of over 900 µM. Also, the pIC50 in data set [2] and in data set [3] was under 3.05 throughout.

Regarding `C=C(C)[C@H](OC(=O)CC(C)C)[C@H](C[C@@H](C)C1=C2C[C@H](OC(=O)CC(C)C)[C@H]3[C@@]4(C)CCC(=O)C(C)(C)[C@@H]4CC[C@]3(C)[C@@]2(C)CC1)OC(=O)CC(C)C`, in data set [1], the CC50 was over 1200 µM. Moreover, the pIC50 in data set [2] and in data set [3] was under 2.92 throughout.

The molecule `CCCCC(=O)O[C@@H](C[C@@H](C)C1=C2C[C@H](OC(=O)CCCC)[C@H]3[C@@]4(C)CCC(=O)C(C)(C)[C@@H]4CC[C@]3(C)[C@@]2(C)CC1)[C@@H](OC(=O)CCCC)C(C)(C)O` displayed a CC50 in data set [1] of over 1300 µM. The pIC50 in data set [2] and in data set [3] was under 2.89 throughout.

`C=C(C)[C@H](OC(=O)CCCC)[C@H](C[C@@H](C)C1=C2C[C@H](OC(=O)CCCC)[C@H]3[C@@]4(C)CCC(=O)C(C)(C)[C@@H]4CC[C@]3(C)[C@@]2(C)CC1)OC(=O)CCCC` returned a CC50 in data set [1] of over 920 µM. The pIC50 in data set [2] and in data set [3] was under 3.04 throughout.

Consider `C[C@H](C[C@H](OC(=O)CC(C)(C)C)[C@@H](OC(=O)CC(C)(C)C)C(C)(C)O)C1=C2C[C@H](OC(=O)CC(C)(C)C)[C@H]3[C@@]4(C)CCC(=O)C(C)(C)[C@@H]4CC[C@]3(C)[C@@]2(C)CC1`, for which the CC50 in data set [1] was over 1200 µM. Further, the pIC50 in data set [2] and in data set [3] was under 2.92 in each case.

Take `C[C@H](C[C@H](OC(=O)c1ccccc1I)[C@@H](OC(=O)c1ccccc1I)C(C)(C)O)C1=C2C[C@H](OC(=O)c3ccccc3I)[C@H]3[C@@]4(C)CCC(=O)C(C)(C)[C@@H]4CC[C@]3(C)[C@@]2(C)CC1`: the half-maximal cytotoxic concentration (CC50) in data set [1] is over 1500 µM. For the same molecule, the pIC50 in data set [2] and in data set [3] was under 2.82 in each case.

Turning to `CCC(CC)C(=O)O[C@@H](C[C@@H](C)C1=C2C[C@H](OC(=O)C(CC)CC)[C@H]3[C@@]4(C)CCC(=O)C(C)(C)[C@@H]4CC[C@]3(C)[C@@]2(C)CC1)[C@@H](OC(=O)C(CC)CC)C(C)(C)O`, in data set [1], the CC50 is over 1100 µM. Moreover, the negative logarithm of the IC50 (pIC50) in data set [2] and in data set [3] was under 2.96 each time.

In turn, `C[C@H](C[C@H](OC(=O)C1CCCCC1)[C@@H](OC(=O)C1CCCCC1)C(C)(C)O)C1=C2C[C@H](OC(=O)C3CCCCC3)[C@H]3[C@@]4(C)CCC(=O)C(C)(C)[C@@H]4CC[C@]3(C)[C@@]2(C)CC1` gave a 50% cytotoxic concentration (CC50) in data set [1] of over 800 µM. For the same molecule, the pIC50 in data set [2] and in data set [3] was under 3.10 each time.

In data set [1], `C[C@H](C[C@H](OC(=O)CCC1CCCCC1)[C@@H](OC(=O)CCC1CCCCC1)C(C)(C)O)C1=C2C[C@H](OC(=O)CCC3CCCCC3)[C@H]3[C@@]4(C)CCC(=O)C(C)(C)[C@@H]4CC[C@]3(C)[C@@]2(C)CC1` registered a CC50 of over 810 µM. In addition, the pIC50 in data set [2] and in data set [3] was under 3.09 each time.

On to `C[C@H](C[C@H](OC(=O)C1CC1)[C@@H](OC(=O)C1CC1)C(C)(C)O)C1=C2C[C@H](OC(=O)C3CC3)[C@H]3[C@@]4(C)CCC(=O)C(C)(C)[C@@H]4CC[C@]3(C)[C@@]2(C)CC1`, for which the CC50 in data set [1] is over 1000 µM. Further, the pIC50 in data set [2] and in data set [3] was under 3.00 throughout.

In data set [1], `C[C@H](C[C@H](OC(=O)C1CCCC1)[C@@H](OC(=O)C1CCCC1)C(C)(C)O)C1=C2C[C@H](OC(=O)C3CCCC3)[C@H]3[C@@]4(C)CCC(=O)C(C)(C)[C@@H]4CC[C@]3(C)[C@@]2(C)CC1` gave a CC50 of over 1100 µM. Besides, the pIC50 in data set [2] and in data set [3] was under 2.96 throughout.

`C[C@H](C[C@H](OC(=O)CCOc1ccccc1)[C@@H](OC(=O)CCOc1ccccc1)C(C)(C)O)C1=C2C[C@H](OC(=O)CCOc3ccccc3)[C@H]3[C@@]4(C)CCC(=O)C(C)(C)[C@@H]4CC[C@]3(C)[C@@]2(C)CC1` yielded a CC50 in data set [1] of over 950 µM. For the same molecule, the pIC50 in data set [2] and in data set [3] was under 3.02 throughout.
